ChEMBL document CHEMBL4184247, “Development of a series of novel o-phenylenediamine-based indoleamine 2,3-dioxygenase 1 (IDO1) inhibitors” (Bioorg Med Chem Lett, 2018)

The molecules below were run against Indoleamine 2,3-dioxygenase 1 (Homo sapiens, UniProt P14902) (assay: Inhibition of IDO1 in IFN-gamma stimulated human HeLa cells assessed as inhibition of kynurenine production pre-incubated for 1 hr followed by IFN-gamma addition and measured after 18 hrs).
Chain of Indoleamine 2,3-dioxygenase 1 (P14902 whole entry): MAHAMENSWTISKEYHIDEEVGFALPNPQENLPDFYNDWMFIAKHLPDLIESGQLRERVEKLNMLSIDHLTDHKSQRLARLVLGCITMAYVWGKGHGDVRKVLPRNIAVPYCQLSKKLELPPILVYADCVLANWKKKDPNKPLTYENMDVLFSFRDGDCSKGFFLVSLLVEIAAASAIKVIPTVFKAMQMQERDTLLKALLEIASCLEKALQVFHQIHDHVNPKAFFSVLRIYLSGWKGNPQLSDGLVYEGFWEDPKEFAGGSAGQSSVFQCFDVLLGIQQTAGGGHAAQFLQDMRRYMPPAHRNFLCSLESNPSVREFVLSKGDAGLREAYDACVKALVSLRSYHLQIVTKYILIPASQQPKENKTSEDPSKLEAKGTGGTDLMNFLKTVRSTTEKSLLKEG
Type: cell-based
In the case of `Cc1ccc(NC(=O)Nc2cc(-c3cccc(C(=O)O)c3)ccc2Oc2ccccc2C(C)(C)C)cc1`, the IC50 is reported as > 1000 nM. Work on `CCCCN(CCCC)c1ccc(-c2ccccc2C(=O)O)cc1NC(=O)Nc1ccc(C)cc1` yielded an IC50 of 45 nM. In the case of `Cc1ccc(NC(=O)Nc2cc(-c3ccc(C(=O)O)cc3)ccc2Oc2ccccc2C(C)(C)C)cc1`, the IC50 is reported as > 1000 nM. With `Cc1ccc(NC(=O)Nc2cc(-c3ccccc3NS(C)(=O)=O)ccc2N(CC(C)C)CC(C)C)cc1` the IC50 was > 1000 nM. For `COCCN(CCOC)c1ccc(-c2ccccc2C(=O)O)cc1NC(=O)Nc1ccc(C)cc1`, the IC50 was > 1000 nM. `Cc1ccc(NC(=O)Nc2cc(-c3ccccc3-c3nnn[nH]3)ccc2N(CC(C)C)CC(C)C)cc1` was tested, and the IC50 was 4 nM. For `Cc1ccc(NC(=O)Nc2cc(-c3ccccc3C(=O)NS(=O)(=O)C(F)(F)F)ccc2N(CC(C)C)CC(C)C)cc1`, the IC50 was > 1000 nM. `Cc1ccc(N2CCN(c3cc(-c4ccccc4-c4nnn[nH]4)ccc3N(CC(C)C)CC(C)C)C2=O)cc1` showed an IC50 of 28 nM. In the case of `CCN(c1ccc(-c2ccccc2C(=O)O)cc1NC(=O)Nc1ccc(C)cc1)C1CCCC1`, the IC50 is reported as 23 nM. `Cc1ccc(NC(=O)Nc2cc(-c3ccccc3C(=O)O)ccc2N(CC(C)C)C(C)C)cc1` was tested, and the IC50 was 42 nM. `Cc1ccc(NC(=O)Nc2cc(-c3ccccc3NS(=O)(=O)C(F)(F)F)ccc2N(CC(C)C)CC(C)C)cc1` was tested, and the IC50 was 76 nM. In the case of `Cc1ccc(NC(=O)N(C)c2cc(-c3ccccc3-c3nnn[nH]3)ccc2N(CC(C)C)CC(C)C)cc1`, the IC50 is reported as 97 nM. In the case of `Cc1ccc(NC(=O)Nc2cc(-c3ccccc3C(=O)O)ccc2N(C)C2CCCCC2)cc1`, the IC50 is reported as 14 nM. `Cc1ccc(NC(=O)Nc2cc(-c3ccccc3C(=O)O)ccc2N(C)c2ccccc2C(C)(C)C)cc1` was tested, and the IC50 was > 1000 nM. Work on `Cc1ccc(N(C)C(=O)Nc2cc(-c3ccccc3-c3nnn[nH]3)ccc2N(CC(C)C)CC(C)C)cc1` yielded an IC50 of 405 nM. In the case of `Cc1ccc(NC(=O)Nc2cc(-c3ccccc3C(=O)O)ccc2N(CC(C)C)CC(C)C)cc1`, the IC50 is reported as 13 nM.
